Test results published in patent US5874402A, “Use of cell membrane permeants in the treatment of cellular proliferative diseases” (Matrix Pharmaceutical, Inc., priority 1997, dated 1999).

Legend:
[1] = test system: RIF-1 tumors; test: RIF-1 murine tumor growth delay after intratumoral injection (days to 4× tumor volume; T/C); format: in vivo, murine (C3H mice); parameters: key to Treated (Table 7 column): days for tumors to reach 4x baseline volume
Experimental: (§1) When the introduced tumors reached 100 mm^3, the mice were ready for testing. During the course of the experiments, the treated and control tumors were measured three times per week by Vernier calipers and the tumor volumes were calculated using the following formula: […]
where D1 -D3 are tumor diameters in millimeters. The number of days for tumors to reach four times (4×) their baseline volume was used as a parameter of treatment effectiveness. Therefore, a longer delay in tumor growth meant greater antitumor efficacy.

[2] = test system: C3H mice; test: Lethal toxicity (deaths) after intratumoral injection in RIF-1 tumor-bearing C3H mice; format: in vivo
Experimental: as §1, with “For each of the following experiments, transplantable murine fibrosarcoma RIF-1 tumors were grown intradermally in the flank of 3-7 month old female C3H mice (2×10^5 cells were injected). When” for “When”

[3] = test system: ovarian cancer cells; conditions: in vitro; cells first exposed to digitonin; cited from earlier work
[4] = Table 6, agent 40 mg/kg (BFA: DMSO as solvent), saponin 10 mg/kg 1 hr prior where combined
[5] = Table 7, dose printed 10, 4 mg/kg (saponin, vinblastine)

C[C@H]1CCC/C=C/[C@@H]2C[C@H](O)C[C@H]2[C@H](O)/C=C/C(=O)O1 [Brefeldin A(BFA), Brefeldin A]
T/C (ratio of tumor growth delay of treated tumors to untreated controls) [1, 4]: 2.6

C=C1O[C@@](CO)(n2cnc3c(N)ncnc32)[C@H](O)[C@@H]1O [Decoyinine]
T/C (ratio of tumor growth delay of treated tumors to untreated controls) [1, 4]: 1.0

C[C@H]1O[C@@H](O[C@H]2[C@@H](O)C[C@H](O[C@H]3[C@@H](O)C[C@H](O[C@H]4CC[C@@]5(C)[C@H](CC[C@@H]6[C@@H]5CC[C@]5(C)[C@@H](C7=CC(=O)OC7)CC[C@]65O)C4)O[C@@H]3C)O[C@@H]2C)C[C@H](O)[C@@H]1O [Digitoxin]
T/C (ratio of tumor growth delay of treated tumors to untreated controls) ([1]; Table 5, permeant 40 mg/kg, no TNF): 0.99

O=c1c(-c2ccc(O)cc2)coc2cc(O)cc(O)c12 [Genistein]
T/C (ratio of tumor growth delay of treated tumors to untreated controls) ([1]; Table 6, agent 80 mg/kg, saponin 10 mg/kg 1 hr prior where combined): 1.1

Cc1ccc(C(=O)Nc2ccc(S(=O)(=O)O)c3cc(S(=O)(=O)O)cc(S(=O)(=O)O)c23)cc1NC(=O)c1cccc(NC(=O)Nc2cccc(C(=O)Nc3cc(C(=O)Nc4ccc(S(=O)(=O)O)c5cc(S(=O)(=O)O)cc(S(=O)(=O)O)c45)ccc3C)c2)c1 [Suramin]
T/C (ratio of tumor growth delay of treated tumors to untreated controls) ([1]; Table 6, agent 20 mg/kg, saponin 10 mg/kg 1 hr prior where combined): 1.0

N#C/C(=C\c1ccc(O)c(O)c1)C(N)=S [Tyrphostin 47]
T/C (ratio of tumor growth delay of treated tumors to untreated controls) ([1]; Table 6, agent 60 mg/kg, EtOH as solvent, saponin 10 mg/kg 1 hr prior where combined): 1.1

CC[C@]1(O)C[C@@H]2CN(CCc3c([nH]c4ccccc34)[C@@](C(=O)OC)(c3cc4c(cc3OC)N(C)[C@H]3[C@@](O)(C(=O)OC)[C@H](OC(C)=O)[C@]5(CC)C=CCN6CC[C@]43[C@@H]65)C2)C1 [Vinblastine(VLB), Vinblastine]
Treated (Table 7 column) [1, 5]: 14.1 ± 1.57
Efficacy of vinblastine, in words ([1]; in conjunction with saponin (Table 7)): greatly enhances the efficacy of the vinblastine
Efficacy of vinblastine, in words ([1]; with saponin and collagen gel matrix (Table 7)): further enhances the efficacy of vinblastine
Toxicity Deaths/# mice [2, 5]: 0/5
Lethal toxic side effects, in words ([2]; vinblastine with saponin and collagen gel matrix (Table 7)): decreasing the observed lethal toxic side effects

N.N.[Cl][Pt][Cl] [cisplatin]
Uptake of cisplatin by ovarian cancer cells [3]: enhanced uptake

Lysolecithin(type 1)
T/C (ratio of tumor growth delay of treated tumors to untreated controls) ([1]; Table 5, permeant 10 mg/kg, no TNF): 1.27

Neomycin sulfate [Neomycin sulfate (NS)]
T/C (ratio of tumor growth delay of treated tumors to untreated controls) [1, 4]: 0.7
